Measurements as given in patent US20240252594A1, “COMBINATION THERAPY FOR NEURODEGENERATIVE DISEASES” (ALETA NEUROSCIENCE, LLC, priority 2021, published 2024).

Key:
[1] = tested on: human dopaminergic neurons (iCell DopaNeurons); experiment: MPP+-induced neurotoxicity: neurite outgrowth (neurite length, branch points) on iCell DopaNeurons; assay type: cell-based; details: for Neurite length, Mean: Table 7.1, plate 1
Excerpt: MPP+(1-methyl-4-phenylpyridinium) is a known neurotoxin which acts by interfering with oxidative phosphorylation in mitochondria by inhibiting complex I, a protein in the membrane of mitochondria in dopaminergic neurons in the substantia nigra.(94) The inhibition of mitochondrial function leads to the depletion of ATP and eventual cell death. MPP+ ultimately causes Parkinsonism in primates by killing certain dopamine-producing neurons in the substantia nigra.
iCell DOPA neurons are neural floor plate-derived midbrain dopaminergic neurons generated from human induced pluripotent stem cells (iPSCs). Dopaminergic neurons, specifically those located in the floor plate-derived midbrain are implicated in neurological disorders such as Parkinson's disease, MSA and DLBD among others. […] The iCellDopa neurons were supplied from FUJIFILM Cellular Dynamics.
(§1) Procedure. iCell DOPA neurons were thawed and cultured following the provider's instructions in Brainphys medium+provided supplements+1% N2 supplement (Stemcell Technologies)+penicillin/streptomycin+Laminin. They were plated at 20000 cells per well of a 384 well plate (pre-coated with poly-D-lysine and Laminin) in 70 μL of growth medium. Cells were incubated at 37° ° C./5% CO2 in a humidified cell culture incubator. Half of the culture medium was changed twice a week.
(§2) MPP+-induced neurotoxicity: 24 hours after neuronal plating, half of the medium was removed and the test compounds were applied with MPP+ treatment, both concentrated at 4×, were added to the wells. For each well, five aliquots were added, corresponding columns A-E in Table 3. In each row, either the compound indicated dissolved in its vehicle noted in Table 2 was added, or only a vehicle was added as indicated. Column E is an indicator of whether MPP+ was added. If not, only the medium was added.
(§3) For the evaluation of conditions 8, 10,12, 22, 24, Neurite outgrowth was followed for subsequent 48 hours using an Incucyte Zoom platform with one phase contrast image every 4 hours, using a 20× objective. After 48 hours, the medium containing test compounds and MPP+ was removed and replaced by fresh medium containing a fluorescent cytolysis marker (red fluorescence) and a live cell marker (green fluorescence). For the evaluation of conditions 10, 12, 24, 38, 40, 51-53, Neurite outgrowth was followed similarly for subsequent 72 hours after MPP+ was added.
Assay endpoints and data analysis. Phase contrast images were analyzed at each time point to determine the neurite length and number of branch points per mm^2. Kinetic data was plotted and kinetics were normalized by subtracting the value of the first data point (at time of treatment), allowing to measure changes in neurite outgrowth only from the onset of the treatment, starting at zero. Area Under Curve (AUC) of kinetic data was obtained and used for plotting compound's effects and perform statistical analyzes.

[2] = tested on: human dopaminergic neurons (iCell DopaNeurons); experiment: MPP+-induced neurotoxicity: cytolysis of iCell DopaNeurons; assay type: cell-based; details: for Cytolysis, Mean ± S.D.: with MPP+ 100 μM
Method: Three different measurements were made in the experiments. Neurite length in mm was measured, which is a measure of increase in dendril length of neurons. […] Secondly, neurite branching was measured. […] Thirdly, cytolysis of the cells was measured. […] Experimental conditions were measured relative to the results of healthy cells in the studies.
as §1, §2, §3
Data was normalized to control conditions as there is basal cytolysis in the cell culture after thawing.

[3] = tested on: iPSC-derived dopaminergic (DA) neurons harboring triplication of the α-synuclein locus; experiment: α-Synuclein triplication cell line: neurofilament heavy chain signal intensity; assay type: cell-based, human; details: normalized to Hoechst signal; three months treatment; PBA 500 μM, TUDCA 50 μM, EXD 100 nM
Method: We used 12 replicas for each experimental condition and 16 replicas for control (untreated cells). […] Cells were washed three times with warm phosphate buffered saline (PBS) and imaged immediately at 20× magnification on an imageXpress Micro confocal at 37° C. and 5% CO2.
Following imaging, cells were immediately fixed with 4% paraformaldehyde for 30 minutes at room temperature, washed three times with PBS, permeabilized with 0.2% Triton X-100 for 30 minutes, blocked with Odyssey Blocking Buffer for 60 minutes, and incubated overnight at 4° C. with primary antibodies, neurofilament (1:1000, Synaptic Systems 171 002) and LB509 (1:100, Abcam ab27766). Cells were washed 3× with 0.1% Tween-20 in PBS and incubated with Alexa Fluor Goat Anti-Rabbit 790 (1:1000) and Goat Anti-Mouse 647 (1:1000) for 1 hour at RT, before washing 3× with 0.1% Tween-20 in PBS and imaging with Sapphire Biomolecular Imager. Neurofilament heavy chain signal intensity was normalized to fixed Hoechst signal measured with Spectra Gemini plate reader (ex=350 nm, em=461 nm), using Hoechst 33342 nucleic acid stain from Invitrogen according to the manufacturer's instructions. Neurofilaments (NF) are located mostly in axons and indicate roughly the content of neurites. If neurodegeneration is halted or reversed, NF signal increases because it correlates with the number and/or length of neurites in the well.

[4] = tested on: IL-6 mediated inflammation in microglial cells; experiment: LPS/ATP-induced neuroinflammation in microglia: IL-6 secretion (Luminex); assay type: cell-based, human; details: for IL-6 in supernatant, Mean ± S.D. / IL-6 in supernatant, Replicate 1 / IL-6 in supernatant, Replicate 2 / IL-6 in supernatant, Replicate 3: LPS (100 ng/mL) + ATP (5 mM), six hours after LPS; for Decrease of IL-6 concentration: compared with […] distilled water in presence of LPS and ATP
Excerpt: (§4) In addition to the studies discussed above assessing activity of combinations of drugs on MPP+-induced neurodegeneration toxicity on human dopaminergic neurons as well as on a human iPSC cell line harboring a triplication mutation in alpha-synuclein gene, and measuring neuronal growth, neurite branching and neurofilament heavy chain, we also assessed combinations of drugs in reducing lipopolysaccharide (LPS, from E. coli)-induced neuroinflammation in human microglia cells.
(§5) Lipopolysaccharides are important outer membrane components of gram-negative bacteria such as E. coli and Salmonella. They are large amphipathic glycoconjugates that typically consist of a lipid domain (hydrophobic) attached to a core oligosaccharide and a distal polysaccharide. LPS binds to Toll-like receptor 4 (TLR4) and activates microglia(98) which in turn increases secretion of pro-inflammatory cytokines such as interleukin-6 (IL-6), tumor necrosis factor-α (TNF-α), and CXCL1/GROα.
(§6) Microglia cells were obtained from an iCell® Microglia kit, 01279 (Catalogue N^o R1131) from FUJIFILM Cellular Dynamics. We followed the manufacturer's protocol for activation of the microglial cells with LPS/ATP to subsequently measure the effect of the study drugs on pro-inflammatory cytokines IL-6, TNF-α and CXCL1/GROα.
(§7) All cell culture procedures were performed in aseptic conditions, under a laminar flow hood. Microglia were thawed and cultured following the provider's instructions. The microglia were plated at 50,000 cells per well of a Corning Primaria 96 well plate (Ref N^o 353872) in 100 μL of growth medium. Cells were incubated at 37° C./5% CO2 in a humidified cell culture incubator.
(§8) Three days after cell plating, the test or reference substances (25 μL of solutions at 5×) were applied 1 hour before LPS and ATP stimulation.
(§9) One hour later, 12.5 μL of test or reference substances were added again at 2× concentrated followed by 12.5 μL of LPS at 12× concentration. Fifty microliters of ATP were introduced at 4× concentration, 5 h 30 min after incubation with LPS.
(§10) Six hours after LPS incubation, the supernatant of each well was collected and centrifugated at 1000 g for 10 minutes to remove the cells and debris.
(§11) Fifty microliters of supernatant from NT and LPS+ATP-treated wells were used to determine cytokine secretion (IL-6, TNF-α, CXCL1/GROα) by Luminex platform according to the provider's instructions. Samples were diluted prior to the assay to fit within the standard range if needed. Three wells were tested per each condition (Table 11). Cytokines levels in the supernatant were expressed in pg/mL. The data was analyzed using a One-Way ANOVA followed by Bonferroni test.

[5] = tested on: TNF-α mediated neuroinflammation in microglial cells; experiment: LPS/ATP-induced neuroinflammation in microglia: TNF-α secretion (Luminex); assay type: cell-based, human; details: for TNF-α in supernatant, Mean ± S.D. / TNF-α in supernatant, Replicate 1 / TNF-α in supernatant, Replicate 2 / TNF-α in supernatant, Replicate 3: LPS (100 ng/mL) + ATP (5 mM), six hours after LPS; for Decrease of TNF-α concentration: compared with […] distilled water in presence of LPS and ATP
Excerpt: as §4, §5, §6, §7, §8, §9, §10, §11

[6] = tested on: CXCL1/GROα mediated neuroinflammation in microglial cells; experiment: LPS/ATP-induced neuroinflammation in microglia: CXCL1/GROα secretion (Luminex); assay type: cell-based, human; details: for CXCL1/GROα in supernatant, Mean ± S.D. / CXCL1/GROα in supernatant, Replicate 1 / CXCL1/GROα in supernatant, Replicate 2 / CXCL1/GROα in supernatant, Replicate 3: LPS (100 ng/mL) + ATP (5 mM), six hours after LPS
Excerpt: as §4, §5, §6, §7, §8, §9, §10, §11

[7] = tested on: riluzole-treated patients; details: cited from earlier work
[8] = tested on: APP/PS1 mice; details: 6-month treatment with 0.4% of TUDCA in diet; cited from earlier work
[9] = tested on: cortical neurons; details: 100 μM for 12 h; cited from earlier work
[10] = tested on: MPTP mouse model; details: pre-treatment 50 mg/kg for 3 days; cited from earlier work
[11] = tested on: R6/2 transgenic mice; details: 500 mg/kg; cited from earlier work
[12] = tested on: patients with rapidly progressive SOD1 ALS; details: not statistically significant; cited from earlier work
[13] = tested on: SOD(G93A) mice; details: treatment from 75 days; cited from earlier work
[14] = tested on: HD patients; details: up to 15 g/day; cited from earlier work
[15] = tested on: G93A transgenic ALS mice; details: mouse, in vivo; cited from earlier work
[16] = tested on: PD patients; details: at 6 months; cited from earlier work
[17] = tested on: R6/2 HD mice; details: 10-day oral treatment, 9-week mice; cited from earlier work
[18] = Table 7.2, plate 1, with MPP+ 100 μM, 72 hours

| SMILES | Increase of number of branch points compared with MPP+ alone (control/MPP+) ([1]; AUC, MPP+ 100 μM) [%] | Neurite length, Mean ([1]; with MPP+ 100 μM, 72 hours) [mm/mm^2] | Neurite Branching, Mean ± S.D. [1, 18] [per mm^2] | Cytolysis, Mean ± S.D. ([2]; Table 9.1, plate 1) [%] | Neurofilament Heavy Chain signal intensity, mean [3] | IL-6 in supernatant, Mean ± S.D. [4] [pg/mL] | IL-6 in supernatant, Replicate 1 [4] [pg/mL] | IL-6 in supernatant, Replicate 2 [4] [pg/mL] | IL-6 in supernatant, Replicate 3 [4] [pg/mL] | Decrease of IL-6 concentration [4] [%] | TNF-α in supernatant, Mean ± S.D. [5] [pg/mL] | TNF-α in supernatant, Replicate 1 [5] [pg/mL] | TNF-α in supernatant, Replicate 2 [5] [pg/mL] | TNF-α in supernatant, Replicate 3 [5] [pg/mL] | Decrease of TNF-α concentration [5] [%] | CXCL1/GROα in supernatant, Mean ± S.D. [6] [pg/mL] | CXCL1/GROα in supernatant, Replicate 1 [6] [pg/mL] | CXCL1/GROα in supernatant, Replicate 2 [6] [pg/mL] | CXCL1/GROα in supernatant, Replicate 3 [6] [pg/mL] | Protective effect on neurite length and branching (in words) ([1]; MPP+ 100 μM) | other results |
| --- | --- | --- | --- | --- | --- | --- | --- | --- | --- | --- | --- | --- | --- | --- | --- | --- | --- | --- | --- | --- | --- |
| C[C@H](CCC(=O)NCCS(=O)(=O)O)[C@H]1CC[C@H]2[C@@H]3[C@@H](O)C[C@@H]4C[C@H](O)CC[C@]4(C)[C@H]3CC[C@]12C [TUDCA, Tauroursodeoxycholic acid] | 60 | 1825.9 | 58836.3 ± 9596.4 | 70.69 ± 2.02 | 1.313 | 437.81 ± 24.71 | 410.97 | 442.87 | 459.60 | 37 | 28.57 ± 0.58 | 29.01 | 27.92 | 28.79 | 52 | 424.96 ± 48.95 | 447.19 | 368.84 | 458.86 |  | Increase of neurite length compared with MPP+ alone (control/MPP+) ([1]; AUC, MPP+ 100 μM): 43%; Reduction of cytolysis (cell death) (in words) ([2]; vs Control/MPP+): did not reduce cytolysis with statistical significance; Decrease of GROα concentration ([6]; compared with […] distilled water in presence of LPS and ATP): 32%; Baseline-adjusted ALSFRS-R at study end vs placebo ([7]; P=0.007): significantly higher; Tolerability ([7]; human, in vivo): well tolerated; Proportion of responders ([7]; placebo 43%, P=0.021): 87%; Aβ plaque accumulation in the brain [8]: prevented Aβ plaque accumulation in the brain; Aβ peptide-associated apoptosis [9]: significantly decrease Aβ peptide-associated apoptosis; Neurodegeneration of nigral dopaminergic neurons caused by MPTP [10]: significantly reduced neurodegeneration of the nigral dopaminergic neurons; Neuroprotection [11]: neuroprotective effects |
| [O-][n+]1cccc(/C(Cl)=N/OC[C@H](O)CN2CCCCC2)c1 [arimoclomol, Arimoclomol] |  |  |  |  |  |  |  |  |  |  |  |  |  |  |  |  |  |  |  |  | Survival, hazard ratio [12]: 0.77; Lifespan [13]: significantly increased the lifespan |
| O=C([O-])CCCc1ccccc1.[Na+] [PBA, Sodium 4-phenylbutyrate] | 89 | 1681.1 | 46742.8 ± 7107.5 | 72.06 ± 1.77 | 1.088 | 355.23 ± 45.97 | 396.23 | 363.94 | 305.53 | 49 | 33.46 ± 1.75 | 32.67 | 35.47 | 32.24 | 44 | 495.79 ± 122.99 | 627.29 | 383.60 | 476.49 | much less protective effect than combination 8 | Neurite length - Baseline-corrected AUC (0-72 h), Mean ([1]; Table 5.1, plate 1, with MPP+ 100 μM): 853.7 mm/mm^2; Number of branch points per mm^2 - Baseline-corrected AUC (0-72 h), Mean ([1]; Table 5.2, plate 1, with MPP+ 100 μM): 41712.8 per mm^2; Safety and tolerability [14]: safe and well-tolerated; Survival [15]: significantly extended survival |
| Cc1c(O)c(=O)ccn1C [DFP, Deferiprone] |  |  |  |  |  |  |  |  |  |  |  |  |  |  |  |  |  |  |  | substantially inferior to condition 40 | Neurite length - Baseline-corrected AUC (0-72 h), Mean ([1]; Table 6.1, plate 2, with MPP+ 100 μM): 874.5 mm/mm^2; Number of branch points per mm^2 - Baseline-corrected AUC (0-72 h), Mean ([1]; Table 6.2, plate 2, with MPP+ 100 μM): 24282.5 per mm^2; Neurite length, Mean ± S.D. ([1]; Table 8.1, plate 2, with MPP+ 100 μM, 72 hours): 1303.0 ± 378.7 mm/mm^2; Neurite Branching, Mean ± S.D. ([1]; Table 8.2, plate 2, with MPP+ 100 μM, 72 hours): 51711.3 ± 15178.4 per mm^2; Cytolysis, Mean ± S.D. ([2]; Table 9.2, plate 2): 71.91 ± 1.28%; UPDRS for motor skills, early start group [16]: 21.6±8; Motor endurance [17]: improved motor endurance |
